# Measurements: patent publication US20210059963A1, “Beta-blockers for treating and/or preventing pathological scars” (GENEPRED BIOTECHNOLOGIES, priority 2017, published 2021)
# Assays:
# Assay type in all cases: in vivo, human
# [1] = tested on: patients with keloid scars; assay: Effect of propranolol on itching associated with keloids (patient report)
# Source text: (§1) During a clinical evaluation and treatment of subjects infected with Schistosoma mansoni in Uganda, the inventors used propranolol to lower portal blood pressure in subjects with severe liver disease (hepatic fibrosis) and splenomegaly. High portal blood pressure causes the development of oesophageal varices and variceal bleedings that are the principal cause of death in S.mansoni-infected subjects. Propranolol is currently used to reduce the risk of variceal bleedings because that drug has blocking effects on beta receptors of the nervous system, thus reducing portal pressure. Five to ten percent of the 5000 fishermen and fisher women of the study had haemorrhagic bleedings from oesophageal varices or were at risk of bleeding. In an attempt to reduce bleedings, propranolol was given to them by the oral route, one 40 mg pill per day. This molecule has little side effects and can be prescribed safely for very long periods excepted to asthmatic subjects and to patients with cardiac problems.
# (§2) During the study, one of the patients had mentioned that their keloid scars were not itching any more since they were treated for high portal pressure. This prompted the inventors to check whether this effect had also been noticed by other patients under the same treatment. The data presented here, have been obtained on 30 of these patients, they were collected from 30 out of 60 patients who had received this same treatment because of a high risk of variceal bleedings. The remaining 30 patients were not available, at that time, for evaluation of the propranolol effects.
# (§3) Keloid Grading: Patient keloid scars were classified as low, intermediate or high severity.
# (§4) Low severity corresponded to one or two scars on any part of the body, intermediate severity corresponded to various scars (including large cordons) on at least 3 different part of the body. Severe grades keloids combined extended large patches and many long and large scars on different part of the body.
# (§5) Statistical analysis was performed using the SPSS software. The effects of the treatment were tested with the nonparametric Wlcoxon test performed on paired data (before and after treatment). P values were calculated for a two sided test.
# [2] = tested on: patients with keloid scars; assay: Effect of propranolol on pain associated with keloids (patient report)
# Source text: as §1, §2, §3, §4, §5
# [3] = tested on: patients with keloid scars; assay: Overall evaluation of the effect of the treatment on patient clinical conditions
# Source text: as §1, §2
# The proposed answers were: a lot of improvement, much improvement, a little improvement and no improvement. […] Only one answer per patient was accepted. Forty four (44.8%) and twenty seven (27.6%) percent of the patients estimated that the treatment had improved either much or a lot their condition, respectively.
# [4] = Global 1 + 2, 40 mg per day for 2 to 4 days, oral
# [5] = Global 1 + 2, 40 mg per day for 2 to 4 days, oral, listed as propranol
# [6] = Itching prior to Treatment 1, oral 40 mg per day
# [7] = Itching prior to Treatment 2, oral 40 mg per day
# [8] = share of patients with this effect who had Itching prior to Treatment 1
# [9] = share of patients with this effect who had Itching prior to Treatment 2
# [10] = Global 1 + 2, oral 40 mg per day
# [11] = Pain Prior to Propranolol 1, oral 40 mg per day
# [12] = Pain Prior to Propranolol 2, oral 40 mg per day
# [13] = share of patients with this effect who had Pain Prior to Propranolol 1
# [14] = share of patients with this effect who had Pain Prior to Propranolol 2
smiles,measurement,setting,value
CC(C)NCC(O)COc1cccc2ccccc12 (centres unmarked) [propranolol],"Effect of Propranolol on Itching: none, % in 1 + 2",[1]; [4],20.0%
same,"Effect of Propranolol on Itching: partial (marked reduction), % in 1 + 2",[1]; [4],56.7%
same,"Effect of Propranolol on Itching: total, % in 1 + 2",[1]; [4],23.3%
same,"Effect of Propranolol on Itching: none, % in 1 + 2",[1]; [5],Twenty
same,"Effect of Propranolol on Itching: total, % in 1 + 2",[1]; [5],23.6%
same,"Effect of Propranolol on Itching: none, % in 1",[1]; [6],0.0%
same,"Effect of Propranolol on Itching: partial, % in 1",[1]; [6],80.0%
same,"Effect of Propranolol on Itching: total, % in 1",[1]; [6],20.0%
same,"Effect of Propranolol on Itching: none, % in 2",[1]; [7],30.0%
same,"Effect of Propranolol on Itching: partial, % in 2",[1]; [7],45.0%
same,"Effect of Propranolol on Itching: total, % in 2",[1]; [7],25.0%
same,treated patients confirming that oral administration reduced keloid scar itching,"[1]; oral administration, 30 patients",80%
same,effect of the treatment on itching as a function of keloid grades,"[1]; patients with all keloid grades (low, intermediate, high), FIG. 1",reduced
same,"Effect of Propranolol on Itching: none, % in none/partial/total",[1]; [8],0%
same,"Effect of Propranolol on Itching: partial, % in none/partial/total",[1]; [8],47.1%
same,"Effect of Propranolol on Itching: total, % in none/partial/total",[1]; [8],28.6%
same,"Effect of Propranolol on Itching: none, % in none/partial/total",[1]; [9],100%
same,"Effect of Propranolol on Itching: partial, % in none/partial/total",[1]; [9],52.9%
same,"Effect of Propranolol on Itching: total, % in none/partial/total",[1]; [9],71.4%
same,study subjects reporting no effects of the treatment on keloid associated pain,[2],20%
same,study subjects reporting reduction of the pain,[2],56.7%
same,"Effects of Propranolol on Pain: Total, % in 1 + 2",[2]; [10],29.2%
same,"Effects of Propranolol on Pain: none, % in 1 + 2",[2]; [10],25.0%
same,"Effects of Propranolol on Pain: partial, % in 1 + 2",[2]; [10],45.8%
same,"Effects of Propranolol on Pain: Total, % in 1",[2]; [11],35.7%
same,"Effects of Propranolol on Pain: none, % in 1",[2]; [11],28.6%
same,"Effects of Propranolol on Pain: partial, % in 1",[2]; [11],35.7%
same,"Effects of Propranolol on Pain: Total, % in 2",[2]; [12],20.0%
same,"Effects of Propranolol on Pain: none, % in 2",[2]; [12],20.0%
same,"Effects of Propranolol on Pain: partial, % in 2",[2]; [12],60.0%
same,study subjects reporting a total abolition of pain,[2]; for at least 2 to 3 days,23.3%
same,effect of the treatment on pain as a function of keloid grades,"[2]; patients with all keloid grades (low, intermediate, high), FIG. 2",reduced
same,"Effects of Propranolol on Pain: Total, % in none/partial/total",[2]; [13],71.4%
same,"Effects of Propranolol on Pain: none, % in none/partial/total",[2]; [13],66.7%
same,"Effects of Propranolol on Pain: partial, % in none/partial/total",[2]; [13],45.5%
same,"Effects of Propranolol on Pain: Total, % in none/partial/total",[2]; [14],28.6%
same,"Effects of Propranolol on Pain: none, % in none/partial/total",[2]; [14],33.3%
same,"Effects of Propranolol on Pain: partial, % in none/partial/total",[2]; [14],54.5%
same,patients estimating that the treatment had improved a lot their condition,"[3]; answer: a lot of improvement, FIG. 3",27.6%
same,patients estimating that the treatment had improved much their condition,"[3]; answer: much improvement, FIG. 3",44.8%
same,patients who felt that the treatment had clearly improved their clinical status,[3]; total of much and a lot of improvement,72.4%
